The results in this text go back to ChEMBL document CHEMBL2046287, “Conformation study of 2-arylbenzimidazoles as inhibitors of Chlamydia pneumoniae growth” (2012).

The test system of this assay is Chlamydia pneumoniae. As to the kind of experiment: Growth inhibition of Chlamydia pneumoniae at 10 uM. It counts as functional. The conditions noted are these: read-out: GI.

Turning to `Cc1ccccc1C(=O)Nc1ccccc1`, the inhibition of growth at 10 µM worked out at 99%.

Turning to `Cc1ccccc1-c1nc2ccccc2[nH]1`, the inhibition of growth at 10 µM was 59%.

As to `c1ccc(-c2nc3ccccc3[nH]2)cc1`, the inhibition of growth at 10 µM came out at 89%.

With `O=C(Nc1ccccc1)c1ccco1`, the inhibition of growth at 10 µM worked out at 45%.

Take `O=C(Nc1ccccc1)c1ccsc1`: the inhibition of growth at 10 µM was 68%.

Take `O=C(Nc1ccccc1)c1ccccc1C(F)(F)F`: the inhibition of growth at 10 µM was found to be 96%.

`Cn1c(-c2ccccc2)nc2ccccc21`: the inhibition of growth at 10 µM was determined as 0%.

With `O=C(Nc1ccccc1)c1cccs1`, the inhibition of growth at 10 µM worked out at 89%.

For `O=C(Nc1ccccc1)c1ccoc1`, the inhibition of growth at 10 µM amounted to 78%.

In the case of `Cn1cccc1C(=O)Nc1ccccc1`, the inhibition of growth at 10 µM is 80%.

As to `O=C(Nc1ccccc1)c1ccccc1F`, the inhibition of growth at 10 µM came out at 0%.

With `COc1ccccc1C(=O)Nc1ccccc1`, the inhibition of growth at 10 µM amounted to 0%.

Regarding `O=C(Nc1ccccc1)c1cscn1`, the inhibition of growth at 10 µM came to 39%.

In the case of `O=C(Nc1ccccc1)c1ccccn1`, the inhibition of growth at 10 µM was 36%.

As to `c1ccc(-c2nc3ccccc3o2)cc1` [2-PHENYLBENZO[D]OXAZOLE], the inhibition of growth at 10 µM was determined as 61%.

On to `O=C(Nc1ccccc1)c1ccccc1` [N-PHENYLBENZAMIDE], for which the inhibition of growth at 10 µM was 99%.
